# Results: PubChem BioAssay (NCI)
#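 Method: 48-hour compound exposure of cells in 96-well plates, five concentrations, linear interpolation of endpoints. TGI: concentration producing complete growth inhibition.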
# Experiments:
# Assay in all cases: NCI anticancer screen, dose series, 48 h
# [1] = system: SK-MEL-28 melanoma
# [2] = system: M19-MEL melanoma
# [3] = system: SN12K1 renal
# [4] = system: KM20L2 colon
# [5] = system: SNB-78 CNS
# [6] = system: XF 498 CNS
# [7] = system: DLD-1 colon
# [8] = system: NCI-H23 lung
# [9] = system: DMS 273 small cell lung
# [10] = system: SW-620 colon
# [11] = system: HOP-62 NSCLC
# [12] = system: HOP-18 NSCLC
# [13] = system: DMS 114 small cell lung
# [14] = system: RXF-631 renal
Compound,TGI [1] [µM],TGI [2] [µM],TGI [3] [µM],TGI [4] [µM],TGI [5] [µM],TGI [6] [µM],TGI [7] [µM],TGI [8] [µM],TGI [9] [µM],TGI [10] [µM],TGI [11] [µM],TGI [12] [µM],TGI [13] [µM],TGI [14] [µM]
O=C1N[C@@H]2C(=C[C@H](O)[C@@H](O)[C@H]2O)c2cc3c(c(O)c21)OCO3,0.0944,0.0771,0.1,0.315,0.399,0.0541,0.0751,0.129,0.145,2.67,0.0538,0.281,,
O=NN(CCF)C(=O)NC1CCSCC1,> 100,> 100,> 100,> 100,> 100,,> 100,> 100,> 100,> 100,> 100,> 100,> 100,
CN1CCN(P2(=S)Oc3ccc4ccccc4c3-c3c(ccc4ccccc34)O2)CC1,> 100,> 100,56.9,> 61.7,> 100,67.3,> 100,> 100,73,> 100,> 78.9,> 100,> 100,
CCOC(=O)c1c[nH]c2ccc3c(c2c1=O)S(=O)(=O)CC3 (tested in a mixture with another compound),> 100,> 100,> 100,> 100,> 100,> 100,> 100,> 100,> 100,> 100,> 100,> 100,> 100,
O=C1NC2CCCCCC2C12CCCCC2 (stereo unspecified),> 100,> 100,,> 100,> 100,> 100,> 100,> 100,,> 100,> 100,,> 100,> 100
